Source: PubChem BioAssay (NCI)
Several values for one entry are separate records, joined by “and”; a condition that tells them apart may be missing. Equal entries are not always repeated.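 96-well plates; 48 h exposure; 5 concentrations. Endpoints by linear interpolation between flanking doses. Not reached: highest tested concentration assigned. GI50 is the concentration that inhibits growth by half. TGI: total growth inhibition.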

What was measured:
Assay in all cases: NCI tumour cell line growth inhibition, 48 h
[1] = system: SK-MEL-28 melanoma
[2] = system: HOP-92 NSCLC
[3] = system: SK-MEL-2 melanoma
[4] = system: HCT-116 colon
[5] = system: MCF7 breast
[6] = system: OVCAR-5 ovarian
[7] = system: M14 melanoma
[8] = system: MDA-MB-435
[9] = system: UO-31 renal
[10] = system: OVCAR-3 ovarian

Compound | TGI [1] | TGI [2] | TGI [3] | TGI [4] | TGI [5] [µM] | TGI [6] | TGI [7] [µM] | TGI [8] [µM] | TGI [9] | TGI [10] | GI50 [1] | GI50 [2] | GI50 [10] | GI50 [3] | GI50 [4] | GI50 [5] | GI50 [6] | GI50 [7] | GI50 [8] | GI50 [9]
CC1=C2C(=C[C@@](C)(CO)[C@@H]2O)C(=O)[C@](C)(O)C12CC2 | 0.0339 µM and 0.0146 µM | 0.061 µM | 0.0297 µM | 0.104 µM and 0.135 µM | 0.0687 | 0.0664 µM and 0.0689 µM | 0.0228 | 0.0312 | 0.0422 µM |  |  |  |  |  |  |  |  |  |  | 
C#CCn1c(=O)c2ccccc2n(CC#C)c1=O | > 10 µM | > 10 µM | > 10 µM | > 10 µM | > 10 | > 10 µM | > 10 | > 10 | > 10 µM | > 10 µM |  |  |  |  |  |  |  |  |  | 
Cc1nnc(NC(=O)c2nc(S(=O)(=O)Cc3ccc(F)cc3)ncc2Cl)s1 | 3.26 µM | 3.22 µM | 9.72 µM | 3.67 µM | 17.6 | 25.4 µM | 10.3 | 3.43 | 20.6 µM | 3.47 µM | 1.73 µM | 1.66 µM | 1.94 µM | 3.19 µM | 1.83 µM | 3.29 µM | 12.4 µM | 2.88 µM | 1.82 µM | 7.15 µM
CC1SC(c2ccc(F)cc2)N(NC(=O)C(O)c2ccccc2)C1=O (stereo not given) | > 100 µM | > 100 µM | > 100 µM | > 100 µM | > 100 | > 100 µM | > 100 | > 100 | > 100 µM | > 100 µM | > 100 µM | > 100 µM | > 100 µM | > 100 µM | > 100 µM | > 100 µM | > 100 µM | > 100 µM | > 100 µM | > 100 µM
CCCOc1cc2ccccc2cc1C(=O)Nc1nc(N)c2c(ccc3nccc32)[nH]1 | 2.36 µM | 1.98 µM | 1.32 µM | 1.22 µM | 1.5 | 2.98 µM | 1.08 | 0.0432 | 2.4 µM | 0.0819 µM | 1.01 µM | 0.0279 µM | 0.0254 µM | 0.0368 µM | 0.0461 µM | 0.0459 µM | 0.911 µM | 0.0405 µM | 0.0133 µM | 0.703 µM
C=C1C(=O)O[C@H]2[C@H]1CC/C(COC(=O)NCc1ccc(Cn3c(=O)sn(-c4ccc(OC)cc4)c3=O)cc1)=C\CC[C@@]1(C)O[C@@H]21 | 4.1 µM | 3.47 µM | 9.46 µM | 3.78 µM | 3.63 | 4.81 µM | 5.65 | 3.84 | 2.94 µM | 3.04 µM | 1.97 µM | 1.61 µM | 1.61 µM | 3.19 µM | 1.93 µM | 1.77 µM | 2.06 µM | 2.19 µM | 1.83 µM | 1.56 µM
C/C(=C\CBr)CCC(Br)C(C)(C)Br (stereo not given) | > 100 µM | > 100 µM | > 100 µM | > 100 µM | > 100 | > 100 µM | > 100 | > 100 | > 100 µM | > 100 µM |  |  |  |  |  |  |  |  |  | 
Nc1n[nH]c2cccc(C#Cc3cccc(C(=O)Nc4ccc(CN5CCOCC5)c(C(F)(F)F)c4)c3)c12 | 7.08 µM | 4.29 µM | 5.81 µM | 5.2 µM | 10.3 | 19.8 µM | 3.59 | 10.5 | 5.82 µM | 12.6 µM | 1.88 µM | 1.12 µM | 3.48 µM | 2.07 µM | 1.53 µM | 2.41 µM | 2.52 µM | 1.17 µM | 2.22 µM | 1.9 µM
Oc1[nH]c2ccccc2c1N=Nc1nc(-c2ccc(Br)cc2)cs1 | 53.9 µM | 31.7 µM | > 100 µM | > 100 µM | > 100 | > 100 µM | 59.2 | > 100 | 56.2 µM | 67.7 µM |  |  |  |  |  |  |  |  |  | 
O=C(Oc1ccc(Cl)cc1)c1ccccc1Nc1ccnc(C(F)(F)F)c1 |  | > 100 µM | > 100 µM |  | 14.7 | 84.4 µM | 4.53 | 4.87 | > 100 µM | 26.4 µM |  | 20.8 µM | 11.6 µM | 20.2 µM |  | 3.73 µM | 25.6 µM | 2.12 µM | 2.15 µM | 28.2 µM
COc1cccc(C2SC(N)=Nc3c2c(C)nn3C(=O)c2ccccc2O)c1 (stereo not given) | > 10 µM | > 10 µM | > 10 µM | > 10 µM | > 10 | > 10 µM | > 10 | > 10 | > 10 µM | > 7.61 µM |  |  |  |  |  |  |  |  |  | 
N#CC(C#N)=C/C=C(\Sc1nc2ccccc2s1)c1ccc(Cl)cc1 | 21.7 µM | 29.3 µM | > 100 µM | 5.78 µM | > 100 | 21.5 µM | 10.5 | 11.1 | 29.3 µM | 22.9 µM | 5.34 µM | 13.8 µM | 4.77 µM | 27.8 µM | 2.14 µM | 7.65 µM | 7.02 µM | 3.19 µM | 2.86 µM | 7.85 µM
O=C1NC(=NC(CO)Cc2ccccc2)S/C1=C\c1ccc2ncccc2c1 (stereo not given) | > 25 µM and 24.4 µM | > 25 µM and 19.5 µM | > 25 µM and 12.4 µM | > 25 µM | > 25 | > 25 µM | > 25 | > 25 | > 25 µM and 16.8 µM | > 25 µM and 11.8 µM | > 23.7 µM and 7.24 µM | 24.2 µM and 6.61 µM | 19.8 µM and 2.73 µM | 10.1 µM and 4.32 µM | 9.89 µM and 1.13 µM | 7.25 µM and 2.98 µM | > 25 µM and 6.83 µM | 14 µM and 7.08 µM | 6.21 µM and 2.54 µM | 16.4 µM and 5.82 µM
C[C@]12CCC3c4ccc(O)cc4CCC3C1CC[C@@]2(O)CNC(=O)/C=C/c1ccc(O)c(O)c1 (stereo not given in full) | 59 µM | 33.6 µM | 32.2 µM | 11.2 µM | 45.4 | 46.9 µM | 22.5 | 8.07 | 15.7 µM | 21.5 µM | 24.8 µM | 12.1 µM | 2.89 µM | 13.5 µM | 3.34 µM | 12.4 µM | 25.1 µM | 10.1 µM | 3.01 µM | 3.5 µM
